In general, pIC50 refers to the IC50 on a negative log10 scale, so that one unit is a factor of ten.

From patent US20260374739A1, “SMALL MOLECULAR WEIGHT CHEMICAL COMPOUND TO ANTAGONIZE EPH-EPHRIN TETRAMERIZATION AND INHIBIT BIDIRECTIONAL SIGNALING” (THE BOARD OF REGENTS OF THE UNIVERSITY OF TEXAS SYSTEM, priority 2022, published 2026) come the findings set out here.

pIC50: −log10 of the molar value. Marks after values point to notes of the source that are not given here.

Assay [1] deals with T1, EphrinB2-EphB2 (Homo sapiens, UniProt P29323).
T1 construct: soluble human EphB1-His, EphB2-His, and EphB4-His ectodomains; commercially available human EphrinB1-Fc (EB1), EphrinB2-Fc (EB2), and EphrinB3-Fc (EB3) ectodomain proteins; purchased
T1 sequence (P29323 19-543 limits assumed): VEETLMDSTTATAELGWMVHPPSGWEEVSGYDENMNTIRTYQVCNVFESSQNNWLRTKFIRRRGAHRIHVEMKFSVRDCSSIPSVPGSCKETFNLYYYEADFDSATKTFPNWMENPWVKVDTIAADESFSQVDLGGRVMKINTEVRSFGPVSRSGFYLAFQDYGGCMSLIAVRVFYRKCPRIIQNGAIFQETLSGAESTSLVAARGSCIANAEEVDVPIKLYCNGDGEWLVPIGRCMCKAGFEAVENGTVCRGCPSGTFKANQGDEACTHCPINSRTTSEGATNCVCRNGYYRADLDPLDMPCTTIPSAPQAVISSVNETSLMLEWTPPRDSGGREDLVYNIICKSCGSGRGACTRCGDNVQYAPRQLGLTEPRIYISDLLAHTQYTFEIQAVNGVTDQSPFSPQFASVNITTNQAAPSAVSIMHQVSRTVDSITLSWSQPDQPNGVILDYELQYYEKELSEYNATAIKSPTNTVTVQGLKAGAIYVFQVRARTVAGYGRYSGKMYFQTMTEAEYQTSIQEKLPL
In words: Octet tetramerization inhibition, immobilized human EphrinB2 binding to 50 nM soluble human EphB2. The note with it: EphrinB2-EphB2. On the technique in general: BLI is a label-free optical method that tracks binding on a fibre tip over time.

In another assay the target is T2, EphrinB2-EphB1 (Homo sapiens, UniProt P54762).
T2 construct: soluble human EphB1-His, EphB2-His, and EphB4-His ectodomains; commercially available human EphrinB1-Fc (EB1), EphrinB2-Fc (EB2), and EphrinB3-Fc (EB3) ectodomain proteins; purchased
T2 sequence (P54762 18-540 limits assumed): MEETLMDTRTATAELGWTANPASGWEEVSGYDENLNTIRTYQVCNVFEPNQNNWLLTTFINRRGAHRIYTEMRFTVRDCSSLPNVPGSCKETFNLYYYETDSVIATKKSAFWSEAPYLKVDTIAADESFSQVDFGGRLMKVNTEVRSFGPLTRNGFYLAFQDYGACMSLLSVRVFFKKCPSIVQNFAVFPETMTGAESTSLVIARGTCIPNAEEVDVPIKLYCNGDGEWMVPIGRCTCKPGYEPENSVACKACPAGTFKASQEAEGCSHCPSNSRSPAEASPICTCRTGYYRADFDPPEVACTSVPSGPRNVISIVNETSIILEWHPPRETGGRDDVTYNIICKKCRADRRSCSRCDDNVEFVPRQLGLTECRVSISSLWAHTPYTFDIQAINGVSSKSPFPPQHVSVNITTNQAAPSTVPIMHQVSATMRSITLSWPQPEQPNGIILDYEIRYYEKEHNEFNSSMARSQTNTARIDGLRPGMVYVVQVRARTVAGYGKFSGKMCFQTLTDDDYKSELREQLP
In words: Octet 80 sec association/500 sec dissociation, immobilized human EphrinB2-Fc binding to soluble human EphB1-His. Particulars: immobilized human EphrinB2, 25 nM soluble human EphB1; for EphB1 Inhibition Percent, Inhibition of Association ONLY: at 3.2 μM and 80 seconds; for EphB1 Inhibition Percent, Inhibition of Association-Dissociation: at 3.2 μM and 580 seconds. A digest of the protocol: (§1)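 EphrinB2-Fc captured on AHC biosensors, then soluble His-tagged EphB ectodomain (25 nM for % inhibition runs) associated 80 s and dissociated 500 s in PBS, 0.05% Tween-20, 1% DMSO ± compound. Compounds tested at 0.1–3.2 μM with a 10 μM max standard; IC50 from AUC of full traces or at 75 s and 135 s.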

In assay [2] the target is T1, EphrinB2-EphB2. In words: Octet 80 sec association/500 sec dissociation, immobilized human EphrinB2-Fc binding to soluble human EphB2-His. The note with it: immobilized human EphrinB2, 25 nM soluble human EphB2; for EphB2 Inhibition Percent, Inhibition of Association ONLY: at 3.2 μM and 80 seconds; for EphB2 Inhibition Percent, Inhibition of Association-Dissociation: at 3.2 μM and 580 seconds. A digest of the protocol: as §1

In the next assay the target is T3, EphrinB2-EphB4 (Homo sapiens, UniProt P54760).
T3 construct: soluble human EphB1-His, EphB2-His, and EphB4-His ectodomains; commercially available human EphrinB1-Fc (EB1), EphrinB2-Fc (EB2), and EphrinB3-Fc (EB3) ectodomain proteins; purchased
T3 sequence (P54760 16-539 limits assumed): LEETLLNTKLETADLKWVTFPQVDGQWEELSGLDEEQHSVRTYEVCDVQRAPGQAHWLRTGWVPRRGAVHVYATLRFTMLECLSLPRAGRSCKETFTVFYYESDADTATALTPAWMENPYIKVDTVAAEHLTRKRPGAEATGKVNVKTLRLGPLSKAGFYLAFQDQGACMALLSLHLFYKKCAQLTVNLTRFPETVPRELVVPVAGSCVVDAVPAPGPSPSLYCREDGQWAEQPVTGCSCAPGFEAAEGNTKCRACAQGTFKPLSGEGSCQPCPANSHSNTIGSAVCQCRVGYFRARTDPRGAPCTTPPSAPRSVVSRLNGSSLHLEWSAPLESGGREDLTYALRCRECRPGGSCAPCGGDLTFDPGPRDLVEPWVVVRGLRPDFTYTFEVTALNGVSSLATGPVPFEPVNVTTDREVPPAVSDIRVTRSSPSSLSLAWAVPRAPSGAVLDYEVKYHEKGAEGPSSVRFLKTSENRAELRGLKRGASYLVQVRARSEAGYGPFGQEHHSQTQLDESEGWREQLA
In words: Octet 80 sec association/500 sec dissociation, immobilized human EphrinB2-Fc binding to soluble human EphB4-His. The note with it: immobilized human EphrinB2, 25 nM soluble human EphB4; for EphB4 Inhibition Percent, Inhibition of Association ONLY: at 3.2 μM and 80 seconds; for EphB4 Inhibition Percent, Inhibition of Association-Dissociation: at 3.2 μM and 580 seconds. Put shortly:
as §1

In another assay the target is T4, EphB1-EphrinB2 (EB2) (Rattus norvegicus, UniProt P09759).
T4 construct: rat EphB1-Fc residues 18-538; mouse EB2-His residues 18-232; purchased R&D Systems (EphB1-Fc); Sino Biologicals (EB2-His)
T4 sequence (P09759 18-538): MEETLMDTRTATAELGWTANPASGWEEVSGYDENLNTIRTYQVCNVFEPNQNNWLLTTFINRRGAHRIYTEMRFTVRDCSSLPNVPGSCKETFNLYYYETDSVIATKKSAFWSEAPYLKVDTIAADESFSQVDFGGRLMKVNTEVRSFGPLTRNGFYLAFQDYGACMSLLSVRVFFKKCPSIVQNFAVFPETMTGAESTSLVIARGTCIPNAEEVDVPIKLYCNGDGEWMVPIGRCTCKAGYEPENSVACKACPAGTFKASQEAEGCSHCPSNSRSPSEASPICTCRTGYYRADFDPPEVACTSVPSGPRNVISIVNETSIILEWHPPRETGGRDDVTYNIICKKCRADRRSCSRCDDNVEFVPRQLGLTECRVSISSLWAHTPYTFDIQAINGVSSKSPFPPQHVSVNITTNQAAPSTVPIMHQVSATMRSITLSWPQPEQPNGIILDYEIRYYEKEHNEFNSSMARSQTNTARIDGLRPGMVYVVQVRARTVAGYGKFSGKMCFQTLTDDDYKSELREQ
In words: Alpha assay EphB1-EphrinB2 (EB2) interaction. The format is binding, mouse EB2. The text has this: A chemiluminescent AlphaScreen™ bead-based proximity assay suitable for HTS was developed to measure the receptor-ligand interaction formed between EphB1 and EphrinB2 (EB2) ectodomains (FIG. 3). Here, when singlet oxygen molecules generated by high energy irradiation of donor beads travel over a constrained distance to excite acceptor beads, a chemiluminescent signal is generated and detected. If an analyte interferes with the EphB1-EB2 protein-protein interaction, close proximity of the donor and acceptor beads will be disrupted resulting in diminished or lost energy transfer and reduced acceptor bead emission.
Test was conducted in the Alpha assay, to see if purified soluble Reelin (previously shown to bind EphB1 ectodomain) can interfere with EphB1-EB2 binding.
The EphB1-EB2 screen was conducted using 0.8 nM of each protein, 50 ng beads per well, and assessed at 5 μM a library of −240,000 small, drug-like chemicals. […] They were also tested in a counter screen designed to identify non-specific compounds. Here, a single-protein Alpha assay was set up using a dual-tagged EphB2-His-Fc ectodomain protein that can bind both donor and acceptor beads to bring them into proximity. If a selected compound simply absorbs the chemiluminescent signal or interferes with bead function/binding or protein folding, it was hypothesized that it would also reduce signals in the single protein assay, and would consider it a false positive.

Setting [3] is: Absolute Association IC50 (300 sec), Table A.
Setting [4] is: Absolute Dissociation IC50 (450 sec), Table A.
The mark [5] stands for this setting: Relative AUC/IC50, Table A, compound 7: association only.
Where [6] appears, read: Relative Association IC50 (300 sec), Table A.
[7] abbreviates: Relative Dissociation IC50 (450 sec), Table A.

Consider `Cc1ccc2c(CN3CCN(c4ccc(Br)cc4)CC3)ccc(O)c2n1` [Compound 61, 5-((4-(4-bromophenyl)piperazin-1-ium-1-yl)methyl)-8-hydroxy-2-methylquinolin-1-ium chloride], for which the negative-log IC50 (pIC50) is under 5.80 on EphrinB2-EphB2 [1] (Absolute AUC/IC50, Table A); under 5.80 on EphrinB2-EphB2 [1] (setting [3]); under 5.80 at EphrinB2-EphB2 [1] (setting [4]); under 5.80 at EphrinB2-EphB2 [1] (setting [5]); under 5.80 at EphrinB2-EphB2 [1] (setting [6]); under 5.80 on EphrinB2-EphB2 [1] (setting [7]). At EphrinB2-EphB1, the “EphB1 Inhibition Percent, Inhibition of Association ONLY” value is 8.1%. The “EphB1 Inhibition Percent, Inhibition of Association-Dissociation” value at EphrinB2-EphB1 amounted to 11.3%. Further, the “EphB2 Inhibition Percent, Inhibition of Association ONLY” value at EphrinB2-EphB2 [2] is reported as 0*%. Moreover, the “EphB2 Inhibition Percent, Inhibition of Association-Dissociation” value at EphrinB2-EphB2 [2] was 0*%. Further, the “EphB4 Inhibition Percent, Inhibition of Association ONLY” value at EphrinB2-EphB4 is given as 0*%. The “EphB4 Inhibition Percent, Inhibition of Association-Dissociation” value on EphrinB2-EphB4 is recorded as 0*%.
Take `COc1ccc2[nH]cc(C(=O)N3CCN(c4ccc(Br)cc4)CC3)c2c1` [Compound 65, (4-(4-bromophenyl)piperazin-1-yl)(5-methoxy-1H-indol-3-yl)methanone]: the negative-log IC50 (pIC50) is under 5.80 on EphrinB2-EphB2 [1] (Absolute AUC/IC50, Table A); under 5.80 at EphrinB2-EphB2 [1] (setting [3]); under 5.80 at EphrinB2-EphB2 [1] (setting [4]); under 5.80 at EphrinB2-EphB2 [1] (setting [5]); under 5.80 on EphrinB2-EphB2 [1] (setting [6]); under 5.80 on EphrinB2-EphB2 [1] (setting [7]). At EphrinB2-EphB1, the “EphB1 Inhibition Percent, Inhibition of Association ONLY” value turned out to be 22.2%. Also, on EphrinB2-EphB1, the “EphB1 Inhibition Percent, Inhibition of Association-Dissociation” value is 28.6%. On EphrinB2-EphB2 [2], the “EphB2 Inhibition Percent, Inhibition of Association ONLY” value is 5.6%. Further, the “EphB2 Inhibition Percent, Inhibition of Association-Dissociation” value at EphrinB2-EphB2 [2] is given as 46.4%. The “EphB4 Inhibition Percent, Inhibition of Association ONLY” value on EphrinB2-EphB4 is 20.2%. Further, the “EphB4 Inhibition Percent, Inhibition of Association-Dissociation” value at EphrinB2-EphB4 is 19.0%.
Turning to `CC1CCN(Cc2cc(Br)c(O)c3ncccc23)CC1` [Compound 66, 7-bromo-5-((4-methylpiperidin-1-yl)methyl)quinolin-8-ol, reference compound], at EphB1-EphrinB2 (EB2), the “antagonism of EphB1-EB2” value is “did not pass through the Alpha confirmation and counter screens”.
